We go through eight compounds from ChEMBL document CHEMBL1132059, “Antitumor agents 187: synthesis and cytotoxicity of substituted 8,8-dimethyl-2H,8H-pyrano[6,5-h]quinoline-2-one and related compounds” (1999).

Values after ≈ are worked out from the molar mass of the structure shown. Active and inactive are the calls of the source. The rule behind the calls is not given here. A value given as a limit tells only on which side of the number the result lay.

In experiment [1] the test system is CAKI-1. The experiment in a line: Cytotoxic activity against human renal cancer (CAKI-1) cell line. The experiment is classed as functional. The conditions noted are these: read-out: ED50 (the source's name).
The test system of experiment [2] is MCF7. The experiment in a line: Cytotoxic activity against human breast cancer (MCF-7) cell line. Format: functional. The conditions noted are these: read-out: ED50 (the source's name).
Experiment [3] relates to A549. The experiment in a line: Cytotoxic activity against human lung carcinoma (A-549) cell line. Format: functional. The conditions noted are these: read-out: ED50 (the source's name).
Experiment [4] deals with KB. The experiment in a line: Cytotoxic activity against human epidermoid carcinoma of the nasopharynx (KB) cell line. Format: functional. The conditions noted are these: read-out: ED50 (the source's name).
The subject of experiment [5] is HCT-8. Nature of the experiment: Cytotoxic activity against human ileocecal carcinoma (HCT-8) cell line. As to conditions: read-out: ED50 (the source's name). The experiment is classed as functional.
The subject of experiment [6] is 1A9. Nature of the experiment: Cytotoxic activity against human ovarian cancer (1A9) cell line. Format: functional. The conditions noted are these: read-out: ED50 (the source's name).
For experiment [7], the system named is SK-MEL-28. Nature of the experiment: Compound was tested for in vitro growth inhibition of human melanoma SK-MEL-28 cell line. The experiment is classed as functional.
The test system of experiment [8] is COLO 205. The experiment in a line: Compound was tested for in vitro growth inhibition of human colon cancer COLO 205 cell line. The experiment is classed as functional.
For experiment [9], the system named is HCT-116. The experiment in a line: Compound was tested for in vitro growth inhibition of human colon cancer HCT116 cell line. Format: functional.
The test system of experiment [10] is OVCAR-3. The experiment in a line: Compound was tested for in vitro growth inhibition of human ovarian cancer OVCAR-3 cell line. Format: functional.
The subject of experiment [11] is MDA-MB-435. The experiment in a line: Compound was tested for in vitro growth inhibition of human breast cancer MDA-MB-435 cell line. The experiment is classed as functional.
In experiment [12] the test system is SF-295. The experiment in a line: Compound was tested for in vitro growth inhibition of human […] SF-295 cell line. Format: functional.
In experiment [13] the test system is CAKI-1. The experiment in a line: Compound was tested for in vitro growth inhibition of human […] cancer CAKI-1 cell line. Format: functional.
For experiment [14], the system named is NCI-H226. The experiment in a line: Compound was tested for in vitro growth inhibition of human non-small cell lung cancer cell line NCI-H226. The experiment is classed as functional.
The test system of experiment [15] is HL-60. Nature of the experiment: Compound was tested for in vitro growth inhibition of human leukemia cell line HL60. Format: functional.
Experiment [16] deals with PD-145. Nature of the experiment: Compound was tested for in vitro growth inhibition of human prostate cancer PD-145 cell line. Format: functional.
Experiment [17] has as its system HCT-8. The experiment in a line: Cytotoxic activity against human ileocecal carcinoma (HCT-8) cell line; NA=Not active. The experiment is classed as functional, cell-based.
Experiment [18] concerns CAKI-1. The experiment in a line: Cytotoxic activity against human renal cancer (CAKI-1) cell line; NA=Not active. The experiment is classed as functional, cell-based.

In general, GI50 refers to the concentration that inhibits growth by half. A high value points to less potent growth inhibition.

On to `Cc1cc(=O)n(C(=O)OC(C)(C)C)c2c3c(ccc12)OC(C)(C)C=C3`, for which the EC50 in experiment [1] turned out to be 4.5 µg/mL (≈ 13.2 µM); in experiment [2], 2.4 µg/mL (≈ 7.03 µM); in experiment [3], 4.3 µg/mL (≈ 12.6 µM); in [4], 2.5 µg/mL (≈ 7.32 µM); in experiment [5], 3.6 µg/mL (≈ 10.5 µM).

Regarding `CC1(C)C=Cc2c(ccc3ccc(O)nc23)O1`, the EC50 in [1] was over 40 µg/mL; in experiment [2], 14.7 µg/mL (≈ 64.7 µM); in experiment [3] it was 18 µg/mL (≈ 79.2 µM); in experiment [4], 13.1 µg/mL (≈ 57.6 µM); in experiment [5], 19.3 µg/mL (≈ 84.9 µM); in experiment [6], 5.8 µg/mL (≈ 25.5 µM).

For `Cc1cc(O)nc2c3c(ccc12)OC(C)(C)C=C3`, the EC50 in [1] was 2.5 µg/mL (≈ 10.4 µM); in experiment [2] it was 1.7 µg/mL (≈ 7.05 µM); in experiment [3] it was 2.2 µg/mL (≈ 9.12 µM); in experiment [4], 1.6 µg/mL (≈ 6.63 µM); in experiment [5], 1.7 µg/mL (≈ 7.05 µM). The GI50 is over 100 µM in experiment [7]; 2.75 µM in [8]; 4.9 µM in experiment [9]; 6.03 µM in [10]; 1.74 µM in [11]; 30.2 µM in experiment [12]. Besides, the 50% growth inhibitory concentration (GI50) is 6.17 µM in [13], over 100 µM in [14], 0.427 µM in experiment [15] and 3.63 µM in [16].

As for `CCCc1cc(O)nc2c3c(ccc12)OC(C)(C)C=C3`, the ED50 result in experiment [17] and in experiment [18] was “inactive” throughout. In addition, the EC50 in [2], in experiment [3], in experiment [4] and in [6] was over 40 µg/mL each time.

Consider `Cc1cc2c(C)c(C)c(O)nc2c2c1OC(C)(C)C=C2`, for which the EC50 in experiment [1] turned out to be 43 µg/mL (≈ 160 µM); in [2] it was 38 µg/mL (≈ 141 µM); in [3] it was 41 µg/mL (≈ 152 µM); in experiment [4], 37 µg/mL (≈ 137 µM); in experiment [5], 41 µg/mL (≈ 152 µM).

For `CC1(C)C=Cc2c(ccc3c(-c4ccccc4)cc(O)nc23)O1`, the EC50 in experiment [1] was over 40 µg/mL; in experiment [2] it was 30 µg/mL (≈ 98.9 µM); in [3], 36.3 µg/mL (≈ 120 µM); in experiment [4], over 40 µg/mL; in experiment [5] it was 28 µg/mL (≈ 92.3 µM); in experiment [6], 10 µg/mL (≈ 33 µM).

With `Cc1cc(S)nc2c3c(ccc12)OC(C)(C)C=C3`, in experiment [18], the ED50 result was “inactive”. Also, the EC50 is 13.8 µg/mL (≈ 53.6 µM) in experiment [2]; 30.3 µg/mL (≈ 118 µM) in experiment [3]; 23 µg/mL (≈ 89.4 µM) in [4]; 28.8 µg/mL (≈ 112 µM) in experiment [5]; 12 µg/mL (≈ 46.6 µM) in experiment [6].

Turning to `Cc1c(O)nc2c3c(ccc2c1C)OC(C)(C)C=C3`, the EC50 in experiment [1] was found to be 35.5 µg/mL (≈ 139 µM); in experiment [2], 19 µg/mL (≈ 74.4 µM); in experiment [3], 25 µg/mL (≈ 97.9 µM); in experiment [4] it was 23 µg/mL (≈ 90.1 µM); in [5] it was 32 µg/mL (≈ 125 µM).
